Measurements from patent US6436630B1, “Method for testing the toxicity of chemical substances using gastropods” (priority 1998, dated 2002).

Columns and labels:
[1] = tested on: foot mucosa of slugs (species Arion); assay: Slug mucosal toxicity test, Example 1 (15 min daily treatment, five days); assay type: in vivo; details: in vivo
Source text: Initially, the slugs are kept on a culture under controlled conditions of temperature and humidity until they have reached a stable body weight. The purpose of achieving a stable body weight is to improve the reproducibility of the results, particularly as the release of substances from the slugs may conveniently be measured in terms of the body weight thereof. The slugs are then isolated from the culture and placed in a vented plastic box lined with moist paper towel and placed at 95% relative humidity at 20° C. seven days before the start of an experiment. The slugs were not bred in any particular way, i.e. they were wild slugs. It is anticipated that even more accurate and reproducible results can be obtained by selective breeding of the slugs, although as shown by the test results this is not a necessary requirement of the present invention to obtain accurate and useful data.
The test procedure is simple and rapid. The chemical substance to be tested is applied directly to the mucosal membrane of a slug, e.g. to the foot, by placing the slug individually in a petri dish containing the test substance. Slugs treated with phosphate buffered saline are used as a negative control. As a positive control slugs treated with a known toxic substance, benzalkonium chloride, were used.
Because the mucosal epithelium of interest is located at the outside of the slug the effect of substances can be easily observed. […] This can also be simply measured by weighing the petri dish before and after the treatment of the slugs with the chemical substance (with the slugs removed in each case). Additionally an indirect response to epithelial damage caused by a chemical substance may be determined by the reduction of the body weight of the slugs due to the leakage of haemolymphatic fluids through the damaged foot surface.
After the treatment the slugs are transferred individually to a fresh petri dish containing phosphate buffered saline. After a suitable exposure time, e.g. 1 hour the phosphate buffered saline is collected and analysed for the presence of proteins and/or enzymes, e.g. lactate dehydrogenase and/or alkaline phosphatase, or other marker substances released from the foot or epithelium of the slug, for example membrane associated components such as phospholipids or cholesterol. This procedure can be repeated after periods of several hours in order to determine the reversibility of the cell damage caused by the test chemical substance. The concentration or amount of the chemical substance to be tested can be changed and the influence of the concentration can be easily examined. The exposure time can also be changed if required. The slugs can be treated during several successive days in order to investigate the subchronical effect of substances on the foot mucosa.
Seven days before the start of the experiment the slugs were isolated in a plastic box lined with moist paper towel and placed at 95% relative humidity at 20° C. As test substances didecanyol-L-α-phosphatidylcholine (DDPC) and sodium deoxycholate (SDC) were selected. Benzalkonium chloride (1% w/v), SDC (1% w/v) and DDPC (1%, w/v) were prepared in phosphate buffered saline (PBS, pH 7.4). […] During the test the slugs are preferably kept in a generally calm and normal state and are not subjected to mechanical vibrations or mechanical or electrical disturbances which may affect mucus production.
The enzymes (lactate dehydrogenase (LDH) and alkaline phosphatase (ALP)) and total protein released into the PBS were determined. The slugs were weighed before and after the incubation period to determine the body weight changes. The mucus production was measured by weighing the petri dishes before and after the treatment with a test substance. The results are shown in Table 1 and shown graphically in FIGS. 1 to 5.

[2] = tested on: foot mucosa of slugs of species Arion; assay type: in vivo; details: in vivo
[3] = tested on: foot mucosa of slugs of species Arion; assay: Slug mucosal toxicity test, Example 2 (15 min daily treatment, four days); details: for % WL, weight loss as reduction in body weight caused by the 15 minutes of treatment / % MP, mucus production as % of the body weight at the start of the day before the treatment: 1% w/v in PBS; for % MP, mucus production as % of the body weight at the start of the day before the treatment / ALP released into PBS / LDH released into PBS / Protein released into PBS: 15 min; for ALP released into PBS / LDH released into PBS / Protein released into PBS: 1% w/v, total mean of 3 samples/day per slug
Protocol: As test substance a β-blocking agent propranolo HCl (1% w/v) was used. Benzalkonium chloride (1% w/v) and Propranolol (1% w/v) were prepared in PBS (pH 7.4). The slugs were daily incubated during 15 min with the test solution during four days. After the incubation period the slugs were placed on 500 μL PBS in a petri dish. The PBS was sampled every hour and refreshed with 500 μL PBS for 3 hours after the treatment.
The enzymes (LDH, ALP) and the total protein released into the PBS were determined. The change in body weight and the mucus production caused by the treatment were examined.

[4] = tested on: foot mucosa of slugs of species Limax; assay type: in vivo; details: in vivo
Protocol: Slugs of the species Limax are terrestial slugs have lungs and also a small internal shell. As test substances hydroxypropyl-β-cyclodextrin (HPβCD), sodium tauro-24,25-dihdrofiisidate (STDHF) and sodium deoxycholate were selected. Benzalkonium chloride (1% w/v), HPβCD (5% w/v), STDHF (1% w/v) and SDC (1% w/v) were prepared in phosphate buffered saline (PBS, pH 7.4).
The enzymes lactate dehydrogenase (LDH) and alkaline phosphatase (ALP) and total protein released into the PBS were determined. The change in body weight and mucus production caused by the treatment were examined.

## Benzalkonium chloride
[1]
  membrane damage (in words): severe membrane damage
[2]
  membrane damage (in words): severe membrane damage
  ranking order of increasing toxicity: PBS, 5% HPβCD<1% STDHF<1% SDC and 1% BAC
  reduction in body weight to % of the initial weight: about 50%
[3]; day 1
  % WL, weight loss as reduction in body weight caused by the 15 minutes of treatment: 7.17%
  % MP, mucus production as % of the body weight at the start of the day before the treatment: 3.28%
  ALP released into PBS: 0.56 U/L
  LDH released into PBS: 1.92 U/L
  Protein released into PBS: 8.36 μg/30 μL
[3]; day 2
  % WL, weight loss as reduction in body weight caused by the 15 minutes of treatment: 4.32%
  % MP, mucus production as % of the body weight at the start of the day before the treatment: 2.75%
  ALP released into PBS: 3.42 U/L
  LDH released into PBS: 6.27 U/L
  Protein released into PBS: 4.08 μg/30 μL
[3]; day 3
  % WL, weight loss as reduction in body weight caused by the 15 minutes of treatment: 2.87%
  % MP, mucus production as % of the body weight at the start of the day before the treatment: 2.35%
  ALP released into PBS: 5.64 U/L
  LDH released into PBS: 8.11 U/L
  Protein released into PBS: 11.69 μg/30 μL
[3]; day 4
  % WL, weight loss as reduction in body weight caused by the 15 minutes of treatment: 3.61%
  % MP, mucus production as % of the body weight at the start of the day before the treatment: 3.09%
  ALP released into PBS: 15.59 U/L
  LDH released into PBS: 48.65 U/L
  Protein released into PBS: 11.79 μg/30 μL
[4]
  membrane damage (in words): severe membrane damage
  ranking order of increasing toxicity: PBS, 5% HPβCD<1% STDHF<1% SDC and 1% BAC
  reduction in body weight to % of the initial weight: about 50%
